# Target: T1, N-terminally GST-tagged human full length recombinant Mps-1 kinase (Homo sapiens, UniProt P33981)
# T1 construct: N-terminally GST-tagged human full length recombinant Mps-1 kinase; purchased Invitrogen, Karslruhe, Germany PV4071
# T1 sequence (P33981 1-857): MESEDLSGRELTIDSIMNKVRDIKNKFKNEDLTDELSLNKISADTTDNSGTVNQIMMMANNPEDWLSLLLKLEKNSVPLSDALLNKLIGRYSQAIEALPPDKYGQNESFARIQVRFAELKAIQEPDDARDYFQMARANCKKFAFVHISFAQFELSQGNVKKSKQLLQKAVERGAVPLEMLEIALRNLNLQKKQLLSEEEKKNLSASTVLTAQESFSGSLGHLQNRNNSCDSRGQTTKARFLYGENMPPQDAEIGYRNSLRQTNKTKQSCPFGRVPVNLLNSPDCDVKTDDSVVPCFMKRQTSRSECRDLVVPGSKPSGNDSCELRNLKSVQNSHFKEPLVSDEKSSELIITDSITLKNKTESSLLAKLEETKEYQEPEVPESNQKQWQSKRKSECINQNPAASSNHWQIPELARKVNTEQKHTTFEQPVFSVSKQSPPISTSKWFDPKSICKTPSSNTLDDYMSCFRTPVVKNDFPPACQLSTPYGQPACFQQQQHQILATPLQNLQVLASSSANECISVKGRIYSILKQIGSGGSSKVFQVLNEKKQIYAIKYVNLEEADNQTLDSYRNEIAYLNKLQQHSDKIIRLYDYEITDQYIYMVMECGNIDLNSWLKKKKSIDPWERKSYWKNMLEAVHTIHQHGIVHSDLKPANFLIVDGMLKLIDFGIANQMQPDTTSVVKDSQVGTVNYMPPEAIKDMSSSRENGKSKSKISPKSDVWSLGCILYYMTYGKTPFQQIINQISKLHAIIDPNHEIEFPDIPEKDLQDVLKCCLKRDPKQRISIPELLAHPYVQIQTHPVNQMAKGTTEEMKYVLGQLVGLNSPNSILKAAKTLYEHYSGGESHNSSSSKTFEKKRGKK
# Assay: Mps-1 kinase assay (TR-FRET)
# Assay type: biochemical
# Settings: Mps1 IC50 [nM], 10 μM ATP, 1 μM peptide substrate, 60 min at 22° C.
# Outline: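 Compounds were tested against recombinant full-length Mps-1 bearing an N-terminal GST tag, about 1 nM final, with a biotinylated amide-capped peptide as substrate. Detection reagents were then bound for 1 h at 22° C and the product read by TR-FRET.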
row,SMILES,IC50 [nM]
1,"CC(C)(O)CNc1cc(Sc2ccccc2)nn2c(-c3ccc(C(=O)NC4CC4)cc3O)cnc12 [Example 51B, N-cyclopropyl-3-hydroxy-4-{8-[(2-hydroxy-2-methylpropyl)amino]-6-(phenylsulfanyl)imidazo[1,2-b]pyridazin-3-yl}benzamide]",1.2
2,"O=C(NC1CC1)c1ccc(-c2cnc3c(NCCC(F)(F)F)cc(Sc4ccccc4)nn23)c(O)c1 [Example 74, N-cyclopropyl-3-hydroxy-4-{6-(phenylsulfanyl)-8-[(3,3,3-trifluoropropyl)amino]imidazo[1,2-b]pyridazin-3-yl}benzamide]",< 0.7
3,"Cc1cc(-c2cnc3c(NCC(O)C(F)(F)F)cc(Sc4cccc(F)c4)nn23)ccc1C(=O)NC1CC1 (racemic) [Example 216, (RS)—N-cyclopropyl-4-{6-[(3-fluorophenyl)sulfanyl]-8-[(3,3,3-trifluoro-2-hydroxypropyl)amino]imidazo[1,2-b]pyridazin-3-yl}-2-methylbenzamide]",< 1
4,"Cc1cc(-c2cnc3c(NCC4CCSCC4)cc(Sc4ccccc4)nn23)ccc1C(=O)NC1CC1 [Example 284, N-cyclopropyl-2-methyl-4-{6-(phenylsulfanyl)-8-[(tetrahydro-2H-thiopyran-4-ylmethyl)amino]imidazo[1,2-b]pyridazin-3-yl}benzamide]",0.4
5,"Cc1cc(-c2cnc3c(NCc4nnn[nH]4)cc(Oc4cccc(F)c4)nn23)ccc1C(=O)NC1CC1 [Example 496, N-cyclopropyl-4-{6-(3-fluoro-phenoxy)-8-[(1H-tetrazol-5-ylmethyl)amino]imidazo[1,2-b]pyridazin-3-yl}-2-methylbenzamide]",8.9
6,"COc1cccc(Oc2cc(NCCC(F)(F)F)c3ncc(-c4ccc(C(=O)NC5CC5)c(C)c4)n3n2)c1 [Example 225, N-cyclopropyl-4-{6-(3-methoxyphenoxy)-8-[(3,3,3-trifluoropropyl)amino]imidazo[1,2-b]pyridazin-3-yl}-2-methylbenzamide]",0.2
7,"Cc1ccc(Cl)cc1Nc1cc(NCCC(F)(F)F)c2ncc(-c3ccc(C(=O)NC4CC4)c(C)c3)n2n1 [Example 377, 4-{6-[(5-chloro-2-methylphenyl)amino]-8-[(3,3,3-trifluoropropyl)amino]imidazo[1,2-b]pyridazin-3-yl}-N-cyclopropyl-2-methylbenzamide]",0.3
8,"Cc1cc(-c2cnc3c(NCC4CNC4)cc(Oc4ccccc4)nn23)ccc1C(=O)NC1CC1 [Example 315, 4-{8-[(azetidin-3-ylmethyl)amino]-6-phenoxy-imidazo[1,2-b]pyridazin-3-yl}-N-cyclopropyl-2-methylbenzamide]",0.3
9,"Cc1cc(-c2cnc3c(NCCC(F)(F)F)cc(Oc4ccc5ncccc5c4)nn23)ccc1C(=O)NC1CC1 [Example 169, N-cyclopropyl-2-methyl-4-{6-(quinolin-6-yloxy)-8-[(3,3,3-trifluoro-propyl)amino]imidazo[1,2-b]pyridazin-3-yl}benzamide]",0.1
10,"Cc1cc(-c2cnc3c(NCC(C)(C)O)cc(Nc4ccccc4)nn23)ccc1C(=O)NC1CC1 [Example 306, 4-{6-anilino-8-[(2-hydroxy-2-methylpropyl)amino]imidazo[1,2-b]pyridazin-3-yl}-N-cyclopropyl-2-methylbenzamide]",0.6
11,"CC(C)CNc1cc(-c2ccc(CO)cc2)nn2c(-c3ccc(C(=O)NC4CC4)cc3)cnc12 [Example 133, N-cyclopropyl-4-{6-[4-(hydroxymethyl)phenyl]-8-[(2-methylpropyl)amino]imidazo[1,2-b]pyridazin-3-yl}benzamide]",< 1
12,"CC(C)CNc1cc(-c2ccc(S(C)(=O)=O)cc2)nn2c(-c3ccc(C(=O)NC4CC4)cc3)cnc12 [Example 142, N-cyclopropyl-4-{8-[(2-methylpropyl)amino]-6-[4-(methylsulfonyl)phenyl]imidazo[1,2-b]pyridazin-3-yl}benzamide]",1.4
13,"Cc1cc(-c2cnc3c(NCC(C)(C)O)cc(-c4ccccc4F)nn23)ccc1C(=O)NC1CC1 [Example 233, N-cyclopropyl-4-{6-(2-fluorophenyl)-8-[(2-hydroxy-2-methylpropyl)amino]imidazo[1,2-b]pyridazin-3-yl}-2-methylbenzamide]",1.7
14,"CNc1ccccc1Oc1cc(NCCN2CCOCC2)c2ncc(-c3ccc(C(=O)NC4CC4)c(C)c3)n2n1 [Example 538, N-cyclopropyl-2-methyl-4-(6-[2-(methylamino)phenoxy]-8-{[2-(morpholin-4-yl)ethyl]amino}imidazo[1,2-b]pyridazin-3-yl)benzamide]",0.8
15,"Cc1cc(-c2cnc3c(NCC(C)C)cc(C(=O)NCCO)nn23)ccc1C(=O)NC1CC1 [Example 199, 3-[4-(Cyclopropylcarbamoyl)-3-methylphenyl]-N-(2-hydroxyethyl)-8-[(2-methylpropyl)amino]imidazo[1,2-b]pyridazine-6-carboxamide]",6.9
16,"CC(C)(O)CNc1cc(-c2ccc(F)cc2)nn2c(-c3ccc(C(=S)NC4CC4)cc3)cnc12 [Example 32, N-cyclopropyl-4-{6-(4-fluorophenyl)-8-[(2-hydroxy-2-methylpropyl)amino]imidazo[1,2-b]pyridazin-3-yl}benzenecarbothioamide]",4.3
17,"Cc1cc(-c2cnc3c(NCCC(F)(F)F)cc(-c4ccnn4C)nn23)ccc1C(=O)NC1CC1 [Example 10, N-cyclopropyl-2-methyl-4-{6-(1-methyl-1H-pyrazol-5-yl)-8-[(3,3,3-trifluoropropyl)amino]imidazo[1,2-b]pyridazin-3-yl}benzamide]",< 1
18,"Cc1cc(-c2cnc3c(NCCC(F)(F)F)cc(N4CCCc5cccc(O)c54)nn23)ccc1C(=O)NC1CC1 [Example 467, N-cyclopropyl-4-{6-(8-hydroxy-3,4-dihydro-quinolin-1(2H)-yl)-8-[(3,3,3-trifluoropropyl)amino]imidazo[1,2-b]pyridazin-3-yl}-2-methyl-benzamide]",1.6
19,"Cc1cc(-c2cnc3c(NCC(C)(C)O)cc(Nc4ccccc4F)nn23)ccc1C(=O)NC1CC1 [Example 384, N-cyclopropyl-4-{6-[(2-fluorophenyl)amino]-8-[(2-hydroxy-2-methylpropyl)amino]imidazo[1,2-b]pyridazin-3-yl}-2-methylbenzamide]",0.4
20,"Cc1cc(-c2cnc3c(NCCCN)cc(Oc4cccc(F)c4)nn23)ccc1C(=O)NC1CC1 [Example 546, 4-{8-[(3-aminopropyl)amino]-6-(3-fluorophenoxy)imidazo[1,2-b]pyridazin-3-yl}-N-cyclopropyl-2-methylbenzamide]",0.1
21,"Cc1cc(-c2cnc3c(NCC4CCN(C)CC4)cc(Oc4cccnc4)nn23)ccc1C(=O)NC1CC1 [Example 527, N-cyclopropyl-2-methyl-4-[8-{[(1-methylpiperidin-4-yl)methyl]amino}-6-(pyridin-3-yloxy)imidazo [1,2-b]pyridazin-3-yl]benzamide]",0.6
22,"Cc1cc(-c2cnc3c(NCCC(F)(F)F)cc(Sc4ccccc4F)nn23)ccc1C(=O)NC1CC1 [Example 268, N-cyclopropyl-4-{6-[(2-fluorophenyl)sulfanyl]-8-[(3,3,3-trifluoropropyl)amino]imidazo[1,2-b]pyridazin-3-yl}-2-methylbenzamide]",0.2
23,"COc1cc(C(=O)NC2CC2)ccc1-c1cnc2c(NCCC(F)(F)F)cc(-c3ccc(F)cc3)nn12 [Example 52, N-cyclopropyl-4-{6-(4-fluorophenyl)-8-[(3,3,3-trifluoropropyl)amino]imidazo[1,2-b]pyridazin-3-yl}-3-methoxybenzamide]",3.2
24,"Cc1cc(-c2cnc3c(NCC4CN(C)CCO4)cc(-c4ccc(F)cc4)nn23)ccc1C(=O)NC1CC1 (racemic) [Example 229, (RS)—N-cyclopropyl-4-[6-(4-fluorophenyl)-8-{[(4-methylmorpholin-2-yl)methyl]amino}imidazo[1,2-b]pyridazin-3-yl]-2-methylbenzamide]",2.6
25,"C/C=C(\C)c1cc(NCCC(F)(F)F)c2ncc(-c3ccc(C(=O)NC4CC4)c(C)c3)n2n1 [Example 221, 4-{6-[(2E)-but-2-en-2-yl]-8-[(3,3,3-trifluoropropyl)amino]imidazo[1,2-b]pyridazin-3-yl}-N-cyclopropyl-2-methylbenzamide]",1.2
26,"COc1ccc(Sc2cc(NCCC(F)(F)F)c3ncc(-c4ccc(C(=O)NC5CC5)c(C)c4)n3n2)cc1 [Example 227, N-cyclopropyl-4-{6-[(4-methoxyphenyl)sulfanyl]-8-[(3,3,3-trifluoropropyl)amino]imidazo[1,2-b]pyridazin-3-yl}-2-methylbenzamide]",0.2

# — US9255100B2 (BAYER INTELLECTUAL PROPERTY GMBH, priority 2010, dated 2016)
